Data published in patent publication US9957252B2, “Metalloenzyme inhibitor compounds as fungicides” (Dow AgroSciences LLC, priority 2014, dated 2018).
Like-named read-outs stand apart in the source and are kept apart here.

Experiments:
Format in all cases: in vivo, Mycosphaerella graminicola on wheat plants (variety Yuma)
[1] = Leaf blotch of wheat fungicidal activity, Type B assay (10% EC formulation in 0.1% Trycol 5941, track sprayer 200 L/ha), field isolate; details: Zymoseptoria tritici, 72 h, field isolate (Wellsbourne, England 2012), wheat seedlings (Yuma)
Experimental: (§1) Evaluation of Fungicidal Activity: Leaf Blotch of Wheat (Mycosphaerella graminicola; Anamorph: Septoria tritici; Bayer code SEPTTR):
(§2) For Type A assays, technical grades of the experimental fungicides in Table 4 below were dissolved in acetone, and then mixed with nine volumes of water containing 110 ppm Triton X-100. The fungicide solutions were applied onto wheat seedlings using an automated booth sprayer. For Type B assays, emulsifiable concentrate (EC) formulations of technical grades of experimental fungicides in Table 4 below were prepared at 10% (w/v), and then mixed with 150 volumes of 0.1% Trycol 5941. The fungicide solutions were applied onto wheat seedlings using an automated track sprayer at 200 L/ha. All sprayed plants were allowed to air dry prior to further handling.
(§3) Wheat plants (variety Yuma) were grown from seed in a greenhouse in 50% mineral soil/50% soil-less Metro mix until the first leaf was fully emerged, with 7-10 seedlings per pot. Prior to or after application of experimental fungicides, plants were inoculated either with spores of a standard laboratory SEPTTR isolate (SI SEPTTR) or with spores from a SEPTTR field isolate collected from Wellsbourne, England in 2012 (FI SEPTTR). After inoculation, the plants were kept for 3 days at 20° C. in 100% relative humidity (one day in a dark dew chamber followed by two days in a lighted dew chamber). Plants were then transferred to a 20° C. greenhouse for disease development. When disease symptoms were fully expressed on untreated plants, infection levels on treated plants were assessed on a scale of 0 to 100 percent disease severity. Percent disease control was calculated using the ratio of disease severity on treated plants relative to untreated plants.

[2] = system: standard laboratory SEPTTR isolate (SI SEPTTR); Mycosphaerella graminicola; Anamorph: Septoria tritici; experiment: Leaf blotch of wheat fungicidal activity, Type A assay (technical grade in acetone/water with Triton X-100, booth sprayer), standard laboratory isolate; details: Zymoseptoria tritici, 24 h, 1 Day Protectant, wheat seedlings (Yuma), read-out: Disease control, SI SEPTTR Type A Assay (50 ppm) 1DP
Experimental: as §1, §2, §3

[3] = system: standard laboratory SEPTTR isolate (SI SEPTTR); Mycosphaerella graminicola; Anamorph: Septoria tritici; experiment: Leaf blotch of wheat fungicidal activity, Type B assay (10% EC formulation in 0.1% Trycol 5941, track sprayer 200 L/ha), standard laboratory isolate; details: Zymoseptoria tritici, 72 h, wheat seedlings (Yuma)
Experimental: as §1, §2, §3

[4] = 3 Day Curative, read-out: Disease control, FI SEPTTR Type B Assay (100 g/ha) 3DC
[5] = 3 Day Protectant, read-out: Disease control, FI SEPTTR Type B Assay (100 g/ha) 3DP
[6] = 3 Day Curative, read-out: Disease control, SI SEPTTR Type B Assay (100 g/ha) 3DC
[7] = 3 Day Protectant, read-out: Disease control, SI SEPTTR Type B Assay (100 g/ha) 3DP

| SMILES | pest or weed control at 100 g/ha [1, 4] [%] | pest or weed control at 100 g/ha [1, 5] [%] | pest or weed control at 50 ppm [2] [%] | pest or weed control at 100 g/ha [3, 6] [%] | pest or weed control at 100 g/ha [3, 7] [%] |
| --- | --- | --- | --- | --- | --- |
| CC(C)(C)C(O)(c1cncnc1)c1ccc(-c2ccc(OCC(F)(F)F)cc2)cc1F (stereo not drawn) [Compound 26] | 80 to 100 | 80 to 100 | 80 to 100 | 80 to 100 | 80 to 100 |
| CC(C)(C)C(O)(c1cncnc1)c1ccc(-c2ccc(C(F)(F)F)cc2F)cc1Cl (stereo not drawn) [Compound 30] | 80 to 100 | 80 to 100 | 80 to 100 | 80 to 100 | 80 to 100 |
| CC(C)(C)C(O)(c1ccc(-c2ccc(C3(C#N)CC3)cc2)cc1)c1cncnc1 (stereo not drawn) [Compound 32] | 60 to 79 | 80 to 100 | 80 to 100 | 80 to 100 | 80 to 100 |
